# Data: paper PMC10900488, “Synthesis and Evaluation of (Bis)benzyltetrahydroisoquinoline Alkaloids as Antiparasitic Agents” (JACS Au, 2024)
# Where two headings read alike, the source gives them in different places.
# Legend:
# [1] = system: NCTC cells; test: Mammalian toxicity, MTT colorimetric; type: cell-based, murine
# Description: (§1) Table 1 depicts the antileishmanial (L. infantum) activity evaluation performed against both the amastigote form (evaluated microscopically using an ex vivo intracellular model of mice macrophages) and the promastigote one (using an MTT colorimetric method).[32],[33] The cytotoxicity was evaluated against NCTC cells using an MTT colorimetric method and the selectivity index was determined using the ratio between the CC50 values (NCTC cells) and the IC50 values (amastigotes).[32] […] With respect to the substituents on the C ring, larger, hydrophobic groups conferred greater bioactivity (e.g., 9b–d), whereas small, hydrophilic groups such as a hydroxyl group afford modest to poor bioactivity. […]
# (§2) Murine conjunctive fibroblasts NCTC clone 929 (ATCC) were maintained in 10% foetal calf serum supplemented RPMI-1640 medium (pH 7.2) at 37 °C in a humidified incubator with 5% CO2. […]
# (§3) Biological activity assays […]
# (§4) NCTC cells (6 × 10^4/well) were added to a 96-well plate. Treatments of the cells with selected compounds (serially diluted 1.5 to 200 μM) was performed in a humidified incubator for 96 h at 37 °C and with 5% CO2.
# (§5) The MTT colorimetric method was used to determine the 50% cytotoxic concentration (CC50) and the selectivity index (CC50 against NCTC cells/IC50 against amastigotes).15 […]
# (§6) […] At 6 h and 24 h post-treatment, a 1 mL aliquot was taken for imaging. The cell cycle experiment was preformed twice independently.
# (§7) Generation of mNG::RAD51 tagged cell line
# (§8) The single-stranded DNA-binding protein RAD51, associated with DNA Repair, LmxM.28.0550 was tagged with endogenous fluorescent protein mNeonGreen (mNG) at the N-terminus. […]
# (§9) Primers for constructs and sgRNA were designed using LeishGEdit (http://www.leishGEdit.net).
# (§10) PCR was at 94 °C for 5 min, followed by 35 cycles at 94 °C (15 sec), 65 °C (15 sec), 72 °C (2 min) then finally 72 °C (1 min).
# (§11) PCR was at 94 °C for 30 sec, followed by 30 cycles at 94 °C (30 sec), 60 °C (30 sec), 72 °C (30 sec) then finally 72 °C (2 min). […] Combined PCR products were precipitated for 20 min with 10 μL 3M sodium acetate and 300 μL EtOH, pelleted at 14000 min-1 30 min, washed once with 70% EtOH, re-pelleted and resuspended in […]
# (§12) Promastigotes (1 × 10^7 cells) were combined with PCR products and transfected using the Amaxa Nucleofector II.17 Electroporation was performed using 2 mm cuvettes on the X-100 program, followed by immediate suspension in pre-warmed M199 medium. Successful transfectants were selected with 20 μg mL-1 Puromycin 15 h after transfection, taking 4 days to reach stable growth in culture. mNG::RAD51 nuclear foci studies mNG::RAD51 promastigotes (5 × 10^6 cells mL-1) in 7 mL of M199 medium were treated with 7 μL o f compound (S)-9a or (S)-9b dissolved in DMSO giving a final concentration of 50 μM. Phleomycin was used as a positive control at a final concentration of 25 μg mL-1. At T = 0, 15, 30, 60 min, and 2, 6, 24 h post-treatment a 0.8 mL aliquot was taken for imaging.
# [2] = system: L. infantum amastigotes; test: Antiamastigote assay (L. infantum), ex vivo intracellular model of mice macrophages, microscopy; type: cell-based, Leishmania (L.) infantum; details: 96 h, read-out: L. infantum IC50 amastigotes
# Description: (§13) Table 1 depicts the antileishmanial (L. infantum) activity evaluation performed against both the amastigote form (evaluated microscopically using an ex vivo intracellular model of mice macrophages) and the promastigote one (using an MTT colorimetric method).[32],[33] The cytotoxicity was evaluated against NCTC cells using an MTT colorimetric method and the selectivity index was determined using the ratio between the CC50 values (NCTC cells) and the IC50 values (amastigotes).[32] […] With respect to the substituents on the C ring, larger, hydrophobic groups conferred greater bioactivity (e.g., 9b–d), whereas small, hydrophilic groups such as a hydroxyl group afford modest to poor bioactivity.
# (§14) Leishmania (L.) infantum (MHOM/BR/1972/LD) amastigotes were obtained from golden hamsters (Mesocricetus auratus) spleens following 60-70 days of infection via differential centrifugation. The Stauber method was used to determine the number of parasites.12 […]
# (§15) Peritoneal macrophages were obtained via washing the peritoneal cavity of BALB/c mice with 10% foetal calf serum supplemented RPMI-1640 medium (pH 7.2). The macrophages were maintained in a humidified incubator at 37 °C and with 5% CO2.
# as §3
# Antiamastigote Assay (L. infantum)
# Peritoneal macrophages (1 × 10^5/well) were added to a 16-well slide chambers (NUNC) and incubated with 5% CO2 at 37 °C. The cells were subsequently infected with L. infantum amastigotes (10:1 amastigotes/macrophage) for 24 h. Treatment of the cells with selected compounds (serially diluted 1.2 to 150 μM) was performed in a humidified incubator for 96 h at 37 °C and with 5% CO2. Untreated cells were used as a negative control and miltefosine was used as a standard drug. The treated cells were fixed on slides with methanol, stained with Giemsa and observed under a light microscope.13 The infection index was used in order to determine the half inhibitory concentration (IC50) (no. infected macrophages × no. amastigotes / total no. […]
# [3] = system: T. cruzi amastigotes; test: Antiamastigote assay (T. cruzi), ex vivo intracellular model using mice macrophages, microscopy; type: cell-based, Trypanosoma (T.) cruzi
# Description: (§16) T. cruzi also assumes several cell morphologies during its lifecycle, which differ between the insect vector and mammalian host. In the latter environment, the parasite transitions between extracellular bloodstream trypomastigotes and intracellular amastigotes; both forms are clinically relevant, particularly during the acute stage of Chagas disease.[34] In this work, antitrypanosomal activity was tested against both the amastigote form (evaluated microscopically using an ex vivo intracellular model using mice macrophages) and the trypomastigote form (using the resazurin in vitro assay).[33],[35] […] In silico predictions of pharmacokinetic profiles were carried out using the SwissADME webtool (see the Supporting Information for details).[36] […]
# (§17) […] Cultivation was performed in 2% fetal calf serum supplemented RPMI-1640 medium.
# (§18) The trypomastigotes were maintained in a humidified incubator at 37 °C and with 5% CO2. […]
# as §15, §3
# Peritoneal macrophages (1 × 10^5 cells/well) obtained from the peritoneal cavity of BALB/C mice were added to 16-well chambers (NUNC, Thermo Fischer Scientific). The cells were infected with trypomastigotes (10:1 parasites/macrophage) for 2 h. Then treatment of the infected macrophages with selected compounds (serially diluted 1.2 to 100 μM) was performed in a humidified incubator for 48 h at 37 °C and with 5% CO2. The treated cells were fixed on slides using methanol, stained with Giemsa and observed under a light microscope (EVOS M5000, Thermo, USA) with digital image equipment. The infection index was used in order to determine the half inhibitory concentration (IC50) (no. infected macrophages × no. amastigotes / total no.
# [4] = system: L. infantum promastigotes; test: Antipromastigote assay (L. infantum), MTT colorimetric; type: cell-based, Leishmania (L.) infantum; details: 48 h; for IC50: read-out: L. infantum IC50 promastigotes
# Description: as §13, §14
# Biological activity assays
# Antipromastigote Assay (L. infantum)
# L. infantum promastigotes (1 × 10^6 cells/well) were added to a 96-well plates. Treatment of the cells with selected compounds (serially diluted 0.14 to 200 μM) was performed in M199 medium supplemented with 0.25% hemin and 10% fetal bovine serum for 48 h at 24 °C. The MTT colorimetric assay was used to determine the activity (IC50) of the compounds. Miltefosine was used as a standard drug and untreated promastigotes were used as a negative control. The half inhibitory concentration (IC50) was determined from a sigmoidal regression of the concentration-response curves generated in GraphPadPrism7. […]
# [5] = system: T. cruzi trypomastigotes; test: Antitrypomastigote assay (T. cruzi), resazurin; type: cell-based, Trypanosoma (T.) cruzi; details: 24 h, read-out: T. cruzi IC50 trypomastigotes
# Description: as §16, §17, §18, §3
# The half inhibitory concentration (IC50) was determined from a sigmoidal regression of the concentration-response curves generated in GraphPadPrism7. […]
# Treatment of the cells with selected compounds (serially diluted 1.2 to 150 μM) was performed in a humidified incubator in RPMI 1640 medium for 24 h at 37 °C and with 5% CO2. Resazurin (0.011% in PBS) was added subsequently to verify parasite viability. Benznidazole was used as a standard drug. The optical density was determined at 570 nm using the FilterMax F5 (Molecular Devices). […]
# [6] = system: mNG::RAD51 promastigotes; test: mNG::RAD51 nuclear foci studies; type: cell-based, Leishmania (L.) mexicana; details: 25 μg mL-1, from 2 h posttreatment
# Excerpt: DSBs often lead to cytotoxicity, which could be an explanation for the observed compound activity.[44]−[46]Leishmania employ the RAD51 DNA recombinase protein as part of its DNA repair machinery to fix naturally occurring nuclear DSBs via homologous recombination.[47]−[50] Using a CRISPR/Cas9 gene editing strategy,[51] we generated a genetically modified cell line with mNeonGreen tagged RAD51. This would allow observation of fluorescent RAD51 protein recruitment to foci in the nucleus corresponding to DSB accumulation, as has been shown in T. brucei.[52],[53] Phleomycin was used as a positive control to induce DSBs,[54] which led to the expected observation of accumulation of RAD51 as green dots in the nucleus in 80% of cells from as early as 2 h posttreatment (Figure 2D). […] We can therefore conclude that the BI compounds tested are unlikely to act via DSBs (albeit this methodology is sensitive only to DSBs in nuclear DNA), and another mechanism of cell cycle disruption is responsible for the breakdown in the healthy cell cycle.
# as §4, §5
# […] […] Statistical significance was derived from a two-tailed T-test.
# The Graph Pad Prism 5 software was used to perform sigmoid dose-response curves for the determination of […]
# as §6, §7, §8
# Primers for constructs and sgRNA were designed using LeishGEdit (http://www.leishGEdit.net). […]
# [7] = system: T. cruzi epimastigotes; set-up: method as in PMID 26625837, PMID 12203262, PMID 3253497, PMID 25629555, PMID 3075676; details: reported antiparasitic activity; cited from earlier work
# [8] = system: L. donovani promastigotes; set-up: method as in PMID 26625837, PMID 12203262, PMID 3253497, PMID 25629555, PMID 3075676; details: reported antiparasitic activity; cited from earlier work
# [9] = Mammalian toxicity, MTT colorimetric; type: cell-based, murine; details: mouse
# Description: as §1, §2, §3, §4, §5, §6, §7, §8, §9, §10, §11, §12
# [10] = ± SD, intracellular, peritoneal macrophages
# [11] = ± SD, peritoneal macrophages, 48 h, read-out: T. cruzi IC50 amastigotes
# [12] = Leishmania infantum, Peritoneal macrophage, ± SD, intracellular, peritoneal macrophages
# [13] = Trypanosoma cruzi, Peritoneal macrophage, 48 h, ± SD, read-out: T. cruzi IC50 amastigotes
# [14] = Trypanosoma cruzi, ± SD, resazurin
Compound,CC50 at 96 h [9] [µM],"IC50 [2, 12] [µM]","IC50 [3, 13] [µM]","IC50 ([4]; Leishmania infantum, ± SD, MTT) [µM]","IC50 [5, 14] [µM]",also measured
COc1ccc(COc2ccc(C[C@@H]3c4cc(OC)c(OC)cc4CCN3C)cc2)cc1 [(R)-10c],–,–,–,–,–,"CC50 [1]: 28.1 ± 5.5 µM; IC50 [2, 10]: 9.3 ± 0.4 µM; IC50 [3, 11]: > 100 µM; IC50 ([4]; ± SD, MTT): 2.4 ± 0.9 µM; IC50 ([5]; ± SD, resazurin): 25.3 ± 2.1 µM"
Phleomycin [reference compound],–,–,–,–,–,cells with accumulation of RAD51 in the nucleus [6]: 80%
"COc1ccc2cc1Oc1ccc(cc1)C[C@H]1c3c(cc(OC)c(O)c3Oc3cc4c(cc3OC)CCN[C@@H]4C2)CCN1C [compound 3, daphnandrine]",–,–,–,–,–,IC50 [7]: 43 µM
"COc1ccc2cc1Oc1ccc(cc1)C[C@H]1c3cc(OC)c(OC)c(c3CCN1C)Oc1c(O)c(OC)cc3c1[C@H](C2)NCC3 [compound 2, northalrugosidine]",–,–,–,–,–,IC50 [8]: 0.28 µM
COc1ccc(COc2ccc(C[C@H]3c4cc(OC)c(OC)cc4CCN3C)cc2)cc1 [(S)-10c],–,–,–,–,–,"CC50 [1]: 5.8 ± 0.5 µM; IC50 [2, 10]: > 150 µM; IC50 [3, 11]: > 100 µM; IC50 ([4]; ± SD, MTT): 4.8 ± 0.2 µM; IC50 ([5]; ± SD, resazurin): 20.4 ± 11.4 µM"
"COc1ccc(COc2ccc(C[C@@H]3c4cc(OC)c(OC)cc4CCN3C)cc2Oc2ccc(C[C@H]3c4cc(OC)c(OC)cc4CCN3C)cc2)cc1 [(R,S)-12]",2.7 ± 1.6,> 150,> 100,0.4 ± 0.2,1.3 ± 0.7,"L. infantum IC50 promastigotes ([4]; ± SD, MTT): submicromolar"
"COc1cc2c(cc1OC)[C@H](Cc1ccc(Oc3cc(C[C@H]4c5cc(OC)c(OC)cc5CCN4C)ccc3OC)cc1)N(C)CC2 [(S,S)-11, (+)-O-methylthalibrine]",11.4 ± 0.2,> 150,> 100,0.7 ± 0.01,3.7 ± 3.6,–
"COc1cc2c(cc1OC)[C@@H](Cc1ccc(Oc3cc(C[C@@H]4c5cc(OC)c(OC)cc5CCN4C)ccc3OC)cc1)N(C)CC2 [(R,R)-11, (−)-O-methyldauricine]",11.4 ± 4.8,> 150,1.5 ± 0.2,0.7 ± 0.1,7.2 ± 0.6,–
"COc1cc2c(cc1OC)[C@@H](Cc1ccc(O)c(Oc3ccc(C[C@H]4c5cc(OC)c(OC)cc5CCN4C)cc3)c1)N(C)CC2 [(S,R)-13]",15.6 ± 1.6,3.6 ± 0.3,4.4 ± 0.4,5.7 ± 1.3,4.2 ± 4.8,–
COc1cc2c(cc1OC)[C@H](Cc1ccc(OCc3ccccc3)cc1)N(C)CC2 [(S)-9d],6.6 ± 1.5,< 10,3.2 ± 0.5,3.7 ± 0.2,< 10,"IC50 [2, 10]: 7.5 ± 2.2 µM; IC50 ([5]; ± SD, resazurin): 7.6 ± 0.4 µM"
"COc1ccc(C[C@H]2c3cc(OC)c(OC)cc3CCN2C)cc1O [(S)-10a, (+)-laudanidine]",–,–,–,–,–,"CC50 at 96 h ([9]; ± SD, NCTC cells, MTT, 96 h, read-out: CC50): > 200 µM; IC50 ([2]; Leishmania infantum, Peritoneal macrophage): > 150 µM; IC50 ([3]; Trypanosoma cruzi, Peritoneal macrophage, 48 h, read-out: T. cruzi IC50 amastigotes, ± SD): < 10 µM; IC50 ([3]; read-out: T. cruzi IC50 amastigotes, ± SD, peritoneal macrophages, 48 h): 5.9 ± 0.9 µM; IC50 ([4]; Leishmania infantum): 95.4 ± 2 µM; IC50 ([5]; Trypanosoma cruzi): > 150 µM"
